Assay: Degradation of 2-deoxy-D-ribose (hydroxyl radical formation)
Conditions: Table I (Addendum); controls: <0.1; 75 μM compound per method
Experimental: This assay followed generally the procedures of Gutteridge, J. M. C., "Reactivity of Hydroxyl and Hydroxyl-Like Radicals Discriminated by Release of Thiobarbituric Acid-Reactive Material from Deoxy Sugars, Nucleosides and Benzoate", Biochem. J., 224, 761-767 (1984) and of Laughton, M. J. et al., "Antioxidant and Prooxidant Actions of the Plant Phenolics Quercetin, Gossypol and Myricetin", Biochem. Pharmacol., 38, 2859-2865 (1989). The following reagents were added to glass tubes in the order and at the final concentrations stated. 0.3 ml KH2 PO4 -KOH buffer, pH 7.4 (30 mM), 0.2 ml H2 O bidist., 0.2 ml 2-deoxy-D-ribose (2 mM), 0.2 ml FeCl3 .cndot.6 H2 O (0.1 mM), 0.1 ml anthracenone derivative (75 μM). Stock solutions of the compounds were made up fresh before use. Appropriate blanks and controls with the vehicle (acetonitrile) were conducted. The final reaction volumes were standardized to 1.0 ml. The reaction mixtures were incubated for 2 h at 37° C. in a shaking water bath. 1.0 ml of 2.8% (w/v) trichloroacetic acid and 1.0 ml of 1% (w/v in 0.05 N NaOH) 2-thiobarbituric acid (TBA) were added, and the samples were heated at 100° C. for 15 min and then cooled in an ice bath (5 min). Then 2.0 ml of the reaction mixtures were treated with 0.05 ml of 36% (w/v) HCl and 2.0 ml of 1-butanol and the mixtures were vigorously shaken in a vortex mixer (Heidolph) for 15 s. The organic layer was separated by centrifugation at 3000 rpm (15 min) and the absorbance at 532 nm was measured against butanol. […]
The biological assay methods were as follows: LDH release as described in Muller K, Huang H-S, Wiegrebe W, J. Med. Chem. 39, 3132-3138 (1996); bovine PMNL 5-LO assay as described in Muller K, Gurster D, Piwek S, Wiegrebe W, J. Med. Chem. 36, 4099-4107 (1993); and degradation of 2-deoxy-D-ribose as described in Muller K, Gurster D, Biochem. Pharmacol. 46, 1695-1704 (1993). […] Extracellular LDH activity was measured using the UV method with pyruvate and NADH and is expressly in mU/ml. […]

- deoxyribose degradation: 0.24 ± 0.03 μmol MDA/mmol
SMILES: CCCC(=O)C1c2cccc(O)c2C(=O)c2c(O)cccc21 [Butantrone, 10-Butyryl-Dithranol]

— patent US5952390A, “10-substituted 1,8-dihydroxy-9(10H) anthracenone pharmaceuticals” (Teva Pharmaceutical Industries Ltd., priority 1998, dated 1999)
